ChEMBL document CHEMBL4842344, “Design, synthesis and biological activity evaluation of novel scopoletin-NO donor derivatives against MCF-7 human breast cancer in vitro and in vivo” (Eur J Med Chem, 2021)
Active and inactive are the calls of the source. The calls are words filed in the database; no cut-off is given here.

Tests used:
MCF7 [1] = test: Antiproliferative activity against human MCF7 cells assessed as inhibition of cell growth measured after 48 hrs by MTT assay; format: functional, cell-based; conditions: MCF7, 48 h
MDA-MB-231 = test: Antiproliferative activity against human MDA-MB-231 cells assessed as inhibition of cell growth measured after 48 hrs by MTT assay; format: functional, cell-based; conditions: MDA-MB-231, 48 h
MCF7 [2] = test: Inhibition of cell proliferation in human MCF7 cells assessed as increase in intracellular NO production at 25 uM measured after 2.5 hrs by nitric oxide assay; format: functional, cell-based
MCF-10A = test: Cytotoxicity against human MCF-10A cells assessed as reduction in cell viability measured after 48 hrs by MTT assay; format: cell-based

SMILES	IC50 (MCF7 [1]) [nM]	IC50 (MDA-MB-231) [nM]	Activity (MCF7 [2])	IC50 (MCF-10A) [nM]
COc1ccc(CCNC(=O)c2cc3cc(OC)c(OCCCOc4no[n+]([O-])c4S(=O)(=O)c4ccccc4)cc3oc2=O)cc1	750	1540	Active	5370
COc1cc2cc(C(=O)Nc3ccc(F)cc3)c(=O)oc2cc1OCCCOc1no[n+]([O-])c1S(=O)(=O)c1ccccc1	860	1200	Active	7210
COc1cc2cc(C(=O)NCc3ccccc3)c(=O)oc2cc1OCCCOc1no[n+]([O-])c1S(=O)(=O)c1ccccc1	740	1060	Active	7030
COc1cc2cc(C(=O)NCCc3ccc(F)cc3)c(=O)oc2cc1OCCCOc1no[n+]([O-])c1S(=O)(=O)c1ccccc1	440	1110	Active	7950
COc1cc2cc(N)c(=O)oc2cc1OCCCOc1no[n+]([O-])c1S(=O)(=O)c1ccccc1	2020	1390		6450
COc1cc2ccc(=O)oc2cc1O [SCOPOLETIN]	> 25000	> 25000		> 25000
COc1ccc(CNC(=O)c2cc3cc(OC)c(OCCCOc4no[n+]([O-])c4S(=O)(=O)c4ccccc4)cc3oc2=O)cc1	560	780	Active	5950
